Source: patent US8062995B2, “Dioxazine-substituted arylamides” (Bayer CropScience AG, priority 2005, dated 2011)

Experiments:
[1] = system: Spodoptera frugiperda larvae; test: Spodoptera frugiperda test (treatment by watering); type: in vivo; conditions: for Kill rate after 14d in %: 20 ppm, treatment by watering
Procedure: Spodoptera frugiperda Test Solvent: 7 parts by weight of dimethylformamide Emulsifier: 2 parts by weight of alkylaryl polyglycol ether To produce a suitable preparation of active compound, 1 part by weight of active compound is mixed with the stated amounts of solvent and emulsifier and the concentrate is diluted with water to the desired concentration. Maize plants (Zea mays) are watered with an active compound preparation of the desired concentration and infected with Spodoptera frugiperda larvae. After the desired period of time, the kill in % is determined. 100% means that all larvae have been killed; 0% means that none of the larvae have been killed.

[2] = system: caterpillars of the army worm (Spodoptera frugiperda); test: Spodoptera frugiperda test (SPODFR spray treatment); type: in vivo; conditions: for Kill rate after 7d in %: 100 g/ha, spray treatment
Procedure: Spodoptera frugiperda Test (SPODFR Spray Treatment) Solvents: 78 parts by weight of acetone • • 1.5 parts by weight of dimethylformamide Emulsifier: 0.5 part by weight of alkylaryl polyglycol ether To produce a suitable preparation of active compound, 1 part by weight of active compound is mixed with the stated amounts of solvents and emulsifier and the concentrate is diluted with emulsifier-containing water to the desired concentration. Discs of maize leaves (Zea mays) are sprayed with an active compound preparation of the desired concentration and after drying populated with caterpillars of the army worm (Spodoptera frugiperda). After the desired period of time, the activity in % is determined. 100% means that all of the caterpillars have been killed; 0% means that none of the caterpillars have been killed.

[3] = logP determination by HPLC (reversed-phase C18), EEC Directive 79/831 Annex V.A8; type: physicochemical; conditions: HPLC reversed-phase C18, 43° C., acidic range pH 2.7
Procedure: The logP values given in the tables and Preparation Examples above are determined in accordance with EEC Directive 79/831 Annex V.A8 by HPLC (High Performance Liquid Chromatography) on a reversed-phase column (C 18). Temperature: 43° C. The determination by LC-MS in the acidic range is carried out at pH 2.7 using 0.1% aqueous formic acid and acetonitrile (contains 0.1% formic acid) as mobile phases; linear gradient from 10% acetonitrile to 95% acetonitrile. Calibration is carried out using unbranched alkan-2-ones (having 3 to 16 carbon atoms) with known logP values (determination of the logP values by the retention times using linear interpolation between two successive alkanones).

[4] = system: caterpillars of the diamondback moth (Plutella xylostella); test: Plutella test (leaf dip); type: in vivo
Procedure: (§1) Plutella Test Solvent: 7 parts by weight of dimethylformamide Emulsifier: 2 parts by weight of alkylaryl polyglycol ether To produce a suitable preparation of active compound, 1 part by weight of active compound is mixed with the stated amounts of solvent and emulsifier and the concentrate is diluted with emulsifier-containing water to the desired concentration. Cabbages leaves (Brassica oleracea) are treated by being dipped into the active compound preparation of the desired concentration and populated with caterpillars of the diamondback moth (Plutella xylostella) while the leaves are still moist. After the desired period of time, the kill in % is determined. 100% means that all caterpillars have been killed; 0% means that none of the caterpillars have been killed.

[5] = system: Spodoptera exigua, resistant strain; test: Spodoptera exigua test; resistant strain; type: in vivo; conditions: for Kill rate after 7d in %: resistant strain
Procedure: Spodoptera exigua Test; Resistant Strain
Solvent: 7 parts by weight of dimethylformamide
Emulsifier: 2 parts by weight of alkylaryl polyglycol ether
To produce a suitable preparation of active compound, 1 part by weight of active compound is mixed with the stated amounts of solvent and emulsifier and the concentrate is diluted with emulsifier-containing water to the desired concentration.
Cabbage leaves (Brassica oleracea) are treated by being dipped into the active compound preparation of the desired concentration and populated with caterpillars of the army worm (Spodoptera exigua, resistant strain) while the leaves are still moist.
After the desired period of time, the kill in % is determined. 100% means that all caterpillars have been killed; 0% means that none of the caterpillars have been killed.

[6] = system: caterpillars of the army worm (Spodoptera exigua); test: Spodoptera exigua test (leaf dip); type: in vivo
Procedure: as §1, with “Spodoptera exigua” for “Plutella”, “Cabbage” for “Cabbages”, “army worm (Spodoptera exigua)” for “diamondback moth (Plutella xylostella)”

[7] = system: larvae of the mustard beetle (Phaedon cochleariae); test: Phaedon test (sprayed Chinese cabbage discs); type: in vivo; conditions: for Kill rate after 7d in %: 100 g/ha
Procedure: (§2) Phaedon Test Solvents: 78 parts by weight of acetone • • 1.5 parts by weight of dimethylformamide Emulsifier: 0.5 part by weight of alkylaryl polyglycol ether To produce a suitable preparation of active compound, 1 part by weight of active compound is mixed with the stated amounts of solvents and emulsifier and the concentrate is diluted with emulsifier-containing water to the desired concentration. Discs of Chinese cabbage (Brassica pekinensis) are sprayed with an active compound preparation of the desired concentration and, after drying, populated with larvae of the mustard beetle (Phaedon cochleariae). After the desired period of time, the activity in % is determined. 100% means that all beetle larvae have been killed; 0% means that none of the beetle larvae have been killed.

[8] = system: caterpillars of the cotton bollworm (Heliothis armigera); test: Heliothis armigera test (leaf dip); type: in vivo
Procedure: as §1, with “Heliothis armigera” for “Plutella”, “Soya bean” for “Cabbages”, “(Glycine max.)” for “(Brassica oleracea)”, “cotton bollworm (Heliothis armigera)” for “diamondback moth (Plutella xylostella)”

[9] = system: green peach aphid (Myzus persicae); test: Myzus test (MYZUPE spray treatment); type: in vivo; conditions: for Kill rate after 5d in %: 100 g/ha, spray treatment
Procedure: as §2, with “Myzus” for “Phaedon”, “Test (MYZUPE Spray Treatment)” for “Test”, “pekinensis), which are infested by all stages of the green peach aphid (Myzus persicae)” for “pekinensis)”, “concentration.” for “concentration and, after drying, populated with larvae of the mustard beetle (Phaedon cochleariae).”, “aphids” for “beetle larvae”

[10] = system: green peach aphid (Myzus persicae); test: Myzus test; oral; type: in vivo; conditions: for Kill rate after 5d in %: 100 ppm, oral
Procedure: Myzus Test; Oral Solvent: 80 parts by weight of acetone To produce a suitable preparation of active compound, 1 part by weight of active compound is mixed with the stated amounts of solvent and the concentrate is diluted with water to the desired concentration. Vessels are populated with all stages of the green peach aphid (Myzus persicae) which are treated by sucking the active compound preparation of the desired concentration. After the desired period of time, the activity in % is determined. 100% means that all aphids have been killed; 0% means that none of the aphids have been killed.

logP [3] | Compound | activity in the Spodoptera frugiperda test, watering (in words) [1] | Kill rate after 14d in % [1] | activity in the Spodoptera frugiperda test, spray treatment (in words) [2] | Kill rate after 7d in % [2] | activity in the Plutella test (in words) [4] | activity in the Spodoptera exigua test, resistant strain (in words) [5] | Kill rate after 7d in % ([5]; 20 ppm) | activity in the Spodoptera exigua test (in words) [6] | activity in the Phaedon test (in words) [7] | Kill rate after 7d in % [7] | activity in the Heliothis armigera test (in words) [8] | activity in the Myzus test, spray treatment (in words) [9] | Kill rate after 5d in % [9] | activity in the Myzus test, oral (in words) [10] | Kill rate after 5d in % [10] | further results
3.00 | Cc1cccc(C2=NOCCO2)c1NC(=O)c1cc(C(F)(F)F)nn1-c1ncccc1Cl [Example I-1-3] | good activity | 95% | good activity | 100% |  |  |  |  |  |  |  |  |  |  |  | 
3.50 | Cc1cc(Cl)cc(C2=NOCCO2)c1NC(=O)c1cc(C(F)(F)F)nn1-c1ncccc1Cl [Example I-1-6] | good activity | 98% | good activity | 100% | good activity | good activity | 100% | good activity | good activity | 100% |  |  |  |  |  | Kill rate after 7d in % ([4]; 20 ppm): 100%; Kill rate after 7d in % ([6]; 100 ppm): 100%
3.18 | Cc1cc(Br)cc(C2=NOCCO2)c1NC(=O)c1cc(Cl)nn1-c1ncccc1Cl [Example I-1-10] | good activity | 90% | good activity | 100% |  | good activity | 100% | good activity | good activity | 100% | good activity |  |  |  |  | Kill rate after 7d in % ([8]; 20 ppm): 100%; Kill rate after 7d in % ([6]; 20 ppm): 100%
3.58 | Cc1cc(Br)cc(C2=NOCCO2)c1NC(=O)c1cc(C(F)(F)F)nn1-c1ncccc1Cl [Example I-1-11] | good activity | 98% | good activity | 100% | good activity | good activity | 80% | good activity | good activity | 100% | good activity |  |  |  |  | Kill rate after 7d in % ([4]; 20 ppm): 80%; Kill rate after 7d in % ([8]; 20 ppm): 100%; Kill rate after 7d in % ([6]; 20 ppm): 100%
1.65 | Cc1cccc(C2=NOCCN2)c1NC(=O)c1cc(Cl)nn1-c1ncccc1Cl [Example I-1-17] |  | 98% | good activity | 100% | good activity | good activity |  | good activity | good activity |  | good activity | good activity | 100% |  |  | Kill rate after 7d in % ([4]; 4 ppm): 100%; Kill rate after 7d in % ([8]; 4 ppm): 100%; Kill rate after 7d in % ([5]; 4 ppm): 100%; Kill rate after 7d in % ([6]; 4 ppm): 100%
2.39 | Cc1cc(I)cc(C2=NOCCN2)c1NC(=O)c1cc(Br)cn1-c1ncccc1Cl [Example I-1-22] |  |  | good activity | 100% |  |  |  |  | good activity | 100% |  | good activity | 100% | good activity | 100% | 
2.21 | Cc1cc(I)cc(C2=NOCCN2)c1NC(=O)c1cc(Br)nn1-c1ncccc1Cl [Example I-1-23] |  |  | good activity | 100% |  |  |  |  | good activity | 100% |  | good activity | 90% | good activity | 100% | 
2.66 | Cc1cc(I)cc(C2=NOCCN2)c1NC(=O)c1cc(C(F)(F)F)nn1-c1ncccc1Cl [Example I-1-24] |  |  | good activity | 100% |  |  |  |  | good activity | 100% |  | good activity | 90% | good activity | 100% | 
